Experimental data reported in patent US20240239794A1, “PKC-Theta Modulators” (Exscientia AI Limited, priority 2021, published 2024).
Counter-ions that a name gives are not always drawn. Like-named read-outs stand apart in the source and are kept apart here.

Columns and labels:
[1] = target: Recombinant human PKC-theta (His-tagged 362-706) (Homo sapiens (Human), UniProt Q04759); assay: PKC-theta inhibition assay (HTRF KinEASE kit); format: biochemical; conditions: ATP 6.5 μM; for IC50: binned A to H, read-out: PKC-theta HTRF pIC50 (binned) (converted)
Outline: (§1)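 Ten semi-log compound doses were fitted by 4-parameter logistic to HTRF acceptor/donor ratios for IC50. Reactions at 25° C used 6.5 μM ATP and 525 nM STK substrate for 30 min (PKC-theta) or 5.7 μM ATP and 243 nM substrate for 20 min (PKC-delta), after 30 min on-ice enzyme–compound preincubation at 10 ng/ml enzyme.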

[2] = target: Recombinant human PKC-delta (His-tagged 345-676) (Homo sapiens (Human), UniProt Q05655); assay: PKC-delta inhibition assay (HTRF KinEASE kit), PKC-theta/PKC-delta selectivity; format: biochemical; conditions: ratio; for PKC-theta/PKC-delta selectivity: PKC-theta over PKC-delta, HTRF assays; for PKC-theta/PKC-delta selectivity (binned): binned A to G
Outline: as §1

[3] = test system: IL-2 secretion by human effector memory T cells (TEM); assay: Effector memory T cells IL-2 release assay; format: cell-based; conditions: T-cell, 24 h
Outline: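 IC50 values come from a 4-parameter fit of HTRF-measured IL-2 against 10 semi-log doses, relative to maximal IL-2 in each experiment. Donor-derived CD4+ TEM cells were bead-stimulated (anti-CD3/CD28) with compound for 24 h at 37° C; cytotoxicity was excluded by viability dye staining.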

[4] = human CD4+ TEM cells, CD3/CD28 bead stimulation, binned A to G, read-out: PKC-theta IL2 pIC50 (binned) (converted)
[5] = human CD4+ TEM cells, CD3/CD28 bead stimulation, read-out: PKC-theta IL2 pIC50 (converted)
[6] = Homo sapiens, read-out: PKC-theta IL2 pIC50 (binned) (converted)
[7] = Homo sapiens, read-out: PKC-theta IL2 pIC50 (converted)

Sequence of Recombinant human PKC-delta (His-tagged 345-676) (Q05655 345-676): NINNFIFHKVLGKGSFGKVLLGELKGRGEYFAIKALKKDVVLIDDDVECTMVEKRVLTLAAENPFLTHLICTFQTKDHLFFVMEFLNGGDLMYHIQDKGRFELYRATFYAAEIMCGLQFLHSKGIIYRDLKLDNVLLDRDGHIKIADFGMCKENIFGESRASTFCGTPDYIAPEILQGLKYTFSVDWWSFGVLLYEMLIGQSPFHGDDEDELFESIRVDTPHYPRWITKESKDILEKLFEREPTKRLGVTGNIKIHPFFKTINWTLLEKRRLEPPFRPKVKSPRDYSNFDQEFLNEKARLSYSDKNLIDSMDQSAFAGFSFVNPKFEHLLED
Sequence of Recombinant human PKC-theta (His-tagged 362-706) (Q04759 362-706): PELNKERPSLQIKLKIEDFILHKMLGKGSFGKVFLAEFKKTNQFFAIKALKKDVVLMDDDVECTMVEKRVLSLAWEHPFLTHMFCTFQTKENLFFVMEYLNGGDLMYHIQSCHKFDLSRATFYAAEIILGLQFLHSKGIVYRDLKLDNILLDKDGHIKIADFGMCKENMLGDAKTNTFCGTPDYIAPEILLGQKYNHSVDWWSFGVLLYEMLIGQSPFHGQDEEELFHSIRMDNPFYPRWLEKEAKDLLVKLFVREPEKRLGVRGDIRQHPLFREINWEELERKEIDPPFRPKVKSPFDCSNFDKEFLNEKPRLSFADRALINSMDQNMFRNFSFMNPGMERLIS

COCc1cc(-c2ccnc3[nH]c(=O)[nH]c23)cn1C1CCNCC1 [Example 4]
PKC-theta HTRF pIC50 [1]: 6.0 | IC50 [1]: > 1000 nM | PKC-theta/PKC-delta selectivity [2]: 2 | PKC-theta/PKC-delta selectivity (binned) [2]: F (F means a ratio of between 1 and 5) | IC50 [3, 4]: > 1000 nM | IC50 [3, 5]: 3980 nM

CC1C(=O)Nc2nccc(-c3ccn(C4CCNCC4)c3)c21 (stereo not drawn) [Example 5]
PKC-theta HTRF pIC50 [1]: 7.1 | IC50 [1]: 31.6 to 100 nM | PKC-theta/PKC-delta selectivity [2]: 1 | PKC-theta/PKC-delta selectivity (binned) [2]: F (F means a ratio of between 1 and 5) | IC50 [3, 4]: 100 to 316 nM | IC50 [3, 5]: 126 nM

CC1(C)C(=O)Nc2nccc(-c3ccn(C4CCNCC4)c3)c21 [Example 6]
PKC-theta HTRF pIC50 [1]: 7.4 | IC50 [1]: 31.6 to 100 nM | PKC-theta/PKC-delta selectivity [2]: 3 | PKC-theta/PKC-delta selectivity (binned) [2]: F (F means a ratio of between 1 and 5) | IC50 [3, 4]: 316 to 1000 nM | IC50 [3, 5]: 631 nM

CC1(C)C(=O)Nc2nccc(-c3cn(C4CCNCC4)c4ccccc34)c21 [Example 7, 3,3-dimethyl-4-[1-(4-piperidyl)indol-3-yl]-1H-pyrrolo[2,3-b]pyridin-2-one Dihydrochloride]
PKC-theta HTRF pIC50 [1]: 7.4 | IC50 [1]: 31.6 to 100 nM | PKC-theta/PKC-delta selectivity [2]: 6 | PKC-theta/PKC-delta selectivity (binned) [2]: E (E means a ratio of between 5 and 10) | IC50 [3, 6]: 316 to 1000 nM | IC50 [3, 7]: 501 nM

CC1(C)C(=O)Nc2nccc(-c3ccn(C4CCNCC4)n3)c21 [Example 8, 3,3-dimethyl-4-[1-(4-piperidyl)pyrazol-3-yl]-1H-pyrrolo[2,3-b]pyridin-2-one Dihydrochloride]
PKC-theta HTRF pIC50 [1]: 8.1 | IC50 [1]: 3.16 to 10 nM | PKC-theta/PKC-delta selectivity [2]: 5 | PKC-theta/PKC-delta selectivity (binned) [2]: E (E means a ratio of between 5 and 10) | IC50 [3, 6]: 100 to 316 nM | IC50 [3, 7]: 126 nM

CC1(C)C(=O)Nc2nccc(-c3nn(C4CCNCC4)c4ccccc34)c21 [Example 9]
PKC-theta HTRF pIC50 [1]: 8.7 | IC50 [1]: 1 to 3.16 nM | PKC-theta/PKC-delta selectivity [2]: 15 | PKC-theta/PKC-delta selectivity (binned) [2]: D (D means a ratio of between 10 and 20) | IC50 [3, 4]: 31.6 to 100 nM | IC50 [3, 5]: 39.8 nM

CC1(C)C(=O)Nc2nccc(-c3cn(C4CCNC4)c4ccccc34)c21 (stereo not drawn) [Example 10]
PKC-theta HTRF pIC50 [1]: 7.4 | IC50 [1]: 31.6 to 100 nM | PKC-theta/PKC-delta selectivity [2]: 12 | PKC-theta/PKC-delta selectivity (binned) [2]: D (D means a ratio of between 10 and 20) | IC50 [3, 4]: 316 to 1000 nM | IC50 [3, 5]: 631 nM

CC1(O)C(=O)Nc2nccc(-c3ccn(C4CCNCC4)c3)c21 (stereo not drawn) [Example 11]
PKC-theta HTRF pIC50 [1]: 7.2 | IC50 [1]: 31.6 to 100 nM | PKC-theta/PKC-delta selectivity [2]: 4 | PKC-theta/PKC-delta selectivity (binned) [2]: F (F means a ratio of between 1 and 5) | IC50 [3, 4]: > 1000 nM | IC50 [3, 5]: 1580 nM

CC1(O)C(=O)Nc2nccc(-c3cn(C4CCNCC4)c4ccccc34)c21 (stereo not drawn) [Example 12]
PKC-theta HTRF pIC50 [1]: 8.1 | IC50 [1]: 3.16 to 10 nM | PKC-theta/PKC-delta selectivity [2]: 11 | PKC-theta/PKC-delta selectivity (binned) [2]: D (D means a ratio of between 10 and 20) | IC50 [3, 4]: 100 to 316 nM | IC50 [3, 5]: 200 nM

CC1(O)C(=O)Nc2nccc(-c3ccn(C4CCNCC4)n3)c21 (stereo not drawn) [Example 13]
PKC-theta HTRF pIC50 [1]: 7.4 | IC50 [1]: 31.6 to 100 nM | PKC-theta/PKC-delta selectivity [2]: 4 | PKC-theta/PKC-delta selectivity (binned) [2]: F (F means a ratio of between 1 and 5) | IC50 [3, 4]: 316 to 1000 nM | IC50 [3, 5]: 631 nM

CC1(C)C(=O)Nc2nccc(-c3ccn([C@H]4CC[C@H](N)CC4)n3)c21 [Example 14]
PKC-theta HTRF pIC50 [1]: 8.5 | IC50 [1]: 3.16 to 10 nM | PKC-theta/PKC-delta selectivity [2]: 3 | PKC-theta/PKC-delta selectivity (binned) [2]: F (F means a ratio of between 1 and 5) | IC50 [3, 4]: 31.6 to 100 nM | IC50 [3, 5]: 50.1 nM

CC1(C)C(=O)Nc2nccc(-c3nn([C@@H]4CCNC4)c4ccccc34)c21 [Example 15]
PKC-theta HTRF pIC50 [1]: 8.6 | IC50 [1]: 1 to 3.16 nM | PKC-theta/PKC-delta selectivity [2]: 14 | PKC-theta/PKC-delta selectivity (binned) [2]: D (D means a ratio of between 10 and 20) | IC50 [3, 4]: 31.6 to 100 nM | IC50 [3, 5]: 39.8 nM

CC1(C)C(=O)Nc2nccc(-c3nn([C@H]4CCNC4)c4ccccc34)c21 [Example 16, 3,3-dimethyl-4-[1-[(3S)-pyrrolidin-3-yl]indazol-3-yl]-1H-pyrrolo[2,3-b]pyridin-2-one Dihydrochloride]
PKC-theta HTRF pIC50 [1]: 8.3 | IC50 [1]: 3.16 to 10 nM | PKC-theta/PKC-delta selectivity [2]: 18 | PKC-theta/PKC-delta selectivity (binned) [2]: D (D means a ratio of between 10 and 20) | IC50 [3, 6]: 31.6 to 100 nM | IC50 [3, 7]: 63.1 nM
